Our source for the IC50 values is BindingDB's records for doi:10.1080/1475636021000005721 (Universit&Eacute, 2002).

Serotonin N-acetyltransferase, sequence (Q16613 whole entry): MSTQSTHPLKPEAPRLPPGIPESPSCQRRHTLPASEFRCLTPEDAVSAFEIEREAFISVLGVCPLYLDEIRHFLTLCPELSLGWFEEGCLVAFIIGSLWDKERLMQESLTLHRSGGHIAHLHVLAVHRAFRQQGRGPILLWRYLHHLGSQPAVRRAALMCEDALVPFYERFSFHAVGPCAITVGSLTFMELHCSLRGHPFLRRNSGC

This experiment concerns the target Serotonin N-acetyltransferase (Homo sapiens, UniProt Q16613). Kind of experiment: AANAT Assay. The following applies: pH 6.8; 37 °C. As for the experimental part: The compounds were evaluated in a human serotonin N-acetyltransferase assay.
One may read the IC50 as the concentration needed to halve the response being measured. Read a low IC50 as higher potency. `O=C(CBr)NCCc1csc2ccccc12` [AANAT Inhibitor, 8e] returned a 50% inhibitory concentration (IC50) of 680 nM.
`COc1ccc2scc(CCNC(=O)CBr)c2c1` [AANAT Inhibitor, 8d] registered an IC50 of 610 nM.
`O=C(CBr)NCCc1csc2ccc(O)cc12` [AANAT Inhibitor, 12d] gave an IC50 of 180 nM.
Next, `COc1ccc2occ(CCNC(=O)CBr)c2c1` [AANAT Inhibitor, 8c]: 40000 nM; `O=C(CBr)NCCc1c[nH]c2ccccc12`: 1430 nM; `O=C(CBr)NCCc1csc2ccc(F)cc12` [AANAT Inhibitor, 8h]: 390 nM.
For `O=C(CBr)NCCc1csc2ccc(Br)cc12` [AANAT Inhibitor, 8g], the IC50 is 3780 nM. Compared with the last compound, the IC50 is about 9.7-fold higher.
Consider `CCc1ccc2scc(CCNC(=O)CBr)c2c1` [AANAT Inhibitor, 8i], for which inhibition was half-maximal at 700 nM (IC50).
